{"source": "ChEMBL document CHEMBL5550205", "about": "“Discovery of a NCOA4 Degrader for Labile Iron-Dependent Ferroptosis Inhibition” (J Med Chem, 2024)", "key": {"AML12 [1]": {"tested_on": "AML12", "experiment": "Protection against iFSP-induced ferroptosis in mouse AML12 cells assessed as increase in cell viability at 200 nM measured for 48 hrs by cell counting-lite 2.0 analysis", "format": "functional, cell-based"}, "Mus musculus [2]": {"tested_on": "Mus musculus", "experiment": "Inhibition of CCl4-induced ferroptosis in acute liver injury C57BL/6 mouse model assessed as reduction in IL-6 level in serum at 10 to 30 mg/kg, ip pretreated with compound for 3 hrs followed by CCl4 induction and measured after 12 to 24 hrs by ELISA analysis", "format": "functional, organism-based", "conditions": "dose 10-30 mg/kg, time 15-27 hrs"}, "AML12 [3]": {"tested_on": "AML12", "experiment": "Upregulation of FTL level in mouse AML12 cells incubated for 24 hrs by Western blot analysis", "format": "functional, cell-based", "conditions": "dose <= 10.0 µM"}, "AML12 [4]": {"tested_on": "AML12", "experiment": "Effect on FTH1 mRNA expression in mouse AML12 cells at 0.12 to 10 uM measured for 36 hrs by RT-qPCR analysis", "format": "functional, cell-based", "conditions": "dose 0.12-10 µM"}, "AML12 [5]": {"tested_on": "AML12", "experiment": "Protection against FINO2-induced ferroptosis in mouse AML12 cells assessed as attenuation of Fe2+ level by fluorescence imaging analysis", "format": "functional, cell-based"}, "AML12 [6]": {"tested_on": "AML12", "experiment": "Protection against RSL3-induced ferroptosis in mouse AML12 cells assessed as attenuation of Fe2+ level by fluorescence imaging analysis", "format": "functional, cell-based"}, "AML12 [7]": {"tested_on": "AML12", "experiment": "Protection against Brequinal-induced ferroptosis in mouse AML12 cells assessed as attenuation of Fe2+ level by fluorescence imaging analysis", "format": "functional, cell-based"}, "[8]": {"target": "von Hippel-Lindau disease tumor suppressor/Nuclear receptor coactivator 4 (Homo sapiens, UniProt P40337+Q13772)", "sequence (P40337 whole entry, looked up)": "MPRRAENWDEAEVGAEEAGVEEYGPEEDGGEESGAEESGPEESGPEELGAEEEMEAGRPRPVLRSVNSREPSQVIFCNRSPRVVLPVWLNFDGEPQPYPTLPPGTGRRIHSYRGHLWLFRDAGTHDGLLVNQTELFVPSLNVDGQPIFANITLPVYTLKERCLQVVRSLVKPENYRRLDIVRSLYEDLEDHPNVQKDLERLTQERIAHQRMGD", "sequence (Q13772 whole entry, looked up)": "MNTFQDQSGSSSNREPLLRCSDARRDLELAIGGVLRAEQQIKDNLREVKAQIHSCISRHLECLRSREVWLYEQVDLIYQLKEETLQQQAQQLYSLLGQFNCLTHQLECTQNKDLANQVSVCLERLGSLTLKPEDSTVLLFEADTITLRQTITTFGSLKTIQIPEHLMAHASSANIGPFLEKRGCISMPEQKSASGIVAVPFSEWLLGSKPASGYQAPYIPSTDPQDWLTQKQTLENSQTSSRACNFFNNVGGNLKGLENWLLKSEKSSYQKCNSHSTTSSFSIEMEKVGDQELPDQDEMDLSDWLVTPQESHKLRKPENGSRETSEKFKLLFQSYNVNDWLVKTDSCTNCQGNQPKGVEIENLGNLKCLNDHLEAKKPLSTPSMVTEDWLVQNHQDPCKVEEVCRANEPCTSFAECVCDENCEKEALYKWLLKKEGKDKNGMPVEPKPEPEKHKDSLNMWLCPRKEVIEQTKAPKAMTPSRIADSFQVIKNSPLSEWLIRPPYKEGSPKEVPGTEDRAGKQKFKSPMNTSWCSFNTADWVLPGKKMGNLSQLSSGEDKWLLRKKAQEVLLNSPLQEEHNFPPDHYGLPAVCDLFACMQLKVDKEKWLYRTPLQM", "experiment": "PROTAC activity at NCOA4/VHL in human HeLa cells assessed as downregulation of NCOA4 level measured after 3 hrs by Western blot analysis", "format": "cell-based"}, "AML12 [9]": {"tested_on": "AML12", "experiment": "Protection against Brequinal-induced ferroptosis in mouse AML12 cells assessed as reduction in lipid peroxidation level at 200 nM measured for 48 hrs", "format": "functional, cell-based"}, "AML12 [10]": {"tested_on": "AML12", "experiment": "Downregulation of MDA level in mouse AML12 cells measured for 36 hrs", "format": "functional, cell-based", "conditions": "dose <= 10.0 µM"}, "AML12 [11]": {"tested_on": "AML12", "experiment": "Protection against CCl4-induced ferroptosis in mouse AML12 cells assessed as […] at 200 nM measured for 48 hrs", "format": "functional, cell-based"}, "AML12 [12]": {"tested_on": "AML12", "experiment": "Protection against CCl4-induced ferroptosis in mouse AML12 cells assessed as reduction in Fe2+ level at 200 to 1000 nM FerroOrange dye based fluorescence analysis", "format": "functional, cell-based", "conditions": "dose 200-1000 nM"}, "AML12 [13]": {"tested_on": "AML12", "experiment": "Protection against CCl4-induced ferroptosis in mouse AML12 cells assessed as reduction in ptgs2 mRNA level at 200 to 1000 nM measured for 36 hrs by qRT-PCR analysis", "format": "functional, cell-based", "conditions": "dose 200-1000 nM"}, "Mus musculus [14]": {"tested_on": "Mus musculus", "experiment": "Inhibition of CCl4-induced ferroptosis in acute liver injury C57BL/6 mouse model assessed as inhibition of AST level at 10 to 30 mg/kg, ip pretreated with compound for 3 hrs followed by CCl4 induction and measured after 12 to 24 hrs", "format": "functional, organism-based", "conditions": "dose 10-30 mg/kg, time 15-27 hrs"}, "AML12 [15]": {"tested_on": "AML12", "experiment": "Protection against RSL3-induced ferroptosis in mouse AML12 cells assessed as reduction in lipid peroxidation level at 200 nM measured for 48 hrs", "format": "functional, cell-based"}, "AML12 [16]": {"tested_on": "AML12", "experiment": "Protection against CCl4-induced ferroptosis in mouse AML12 cells assessed as cell viability in presence of Ferrostatin-1", "format": "functional, cell-based"}, "AML12 [17]": {"tested_on": "AML12", "experiment": "Protection against Brequinal-induced ferroptosis in mouse AML12 cells assessed as increase in cell viability at 200 nM measured for 48 hrs by cell counting-lite 2.0 analysis", "format": "functional, cell-based"}, "AML12 [18]": {"tested_on": "AML12", "experiment": "Protection against RSL3-induced ferroptosis in mouse AML12 cells assessed as increase in cell viability at 200 nM measured for 48 hrs by cell counting-lite 2.0 analysis", "format": "functional, cell-based"}, "AML12 [19]": {"tested_on": "AML12", "experiment": "Protection against FINO2-induced ferroptosis in mouse AML12 cells assessed as reduction in lipid peroxidation level at 200 nM measured for 48 hrs", "format": "functional, cell-based"}, "AML12 [20]": {"tested_on": "AML12", "experiment": "Protection against Erastin-induced ferroptosis in mouse AML12 cells assessed as reduction in lipid peroxidation level at 200 nM measured for 48 hrs", "format": "functional, cell-based"}, "Mus musculus [21]": {"tested_on": "Mus musculus", "experiment": "Inhibition of CCl4-induced ferroptosis in acute liver injury C57BL/6 mouse model assessed as reduction in hepatocyte damage at 10 to 30 mg/kg, ip pretreated with compound for 3 hrs followed by CCl4 induction and measured after 12 to 24 hrs by H and E staining based analysis", "format": "functional, organism-based", "conditions": "dose 10-30 mg/kg, time 15-27 hrs"}, "AML12 [22]": {"tested_on": "AML12", "experiment": "Protection against CCl4-induced ferroptosis in mouse AML12 cells assessed as cell viability in presence of Deferoxamine", "format": "functional, cell-based"}, "AML12 [23]": {"tested_on": "AML12", "experiment": "Effect on FTL mRNA expression in mouse AML12 cells at 0.12 to 10 uM measured for 36 hrs by RT-qPCR analysis", "format": "functional, cell-based", "conditions": "dose 0.12-10 µM"}, "Mus musculus [24]": {"tested_on": "Mus musculus", "experiment": "Inhibition of CCl4-induced ferroptosis in acute liver injury C57BL/6 mouse model assessed as reduction in inflammation at 10 to 30 mg/kg, ip pretreated with compound for 3 hrs followed by CCl4 induction and measured after 12 to 24 hrs by H and E staining based analysis", "format": "functional, organism-based", "conditions": "dose 10-30 mg/kg, time 15-27 hrs"}, "Mus musculus [25]": {"tested_on": "Mus musculus", "experiment": "Inhibition of CCl4-induced ferroptosis in acute liver injury C57BL/6 mouse model assessed as decrease in IL-1beta expression in liver at 10 to 30 mg/kg, ip pretreated with compound for 3 hrs followed by CCl4 induction and measured after 12 to 24 hrs by q-PCR analysis", "format": "functional, organism-based", "conditions": "dose 10-30 mg/kg, time 15-27 hrs"}, "Mus musculus [26]": {"tested_on": "Mus musculus", "experiment": "Inhibition of CCl4-induced ferroptosis in acute liver injury C57BL/6 mouse model assessed as reduction in ptgs2 mRNA level in liver at 10 to 30 mg/kg, ip pretreated with compound for 3 hrs followed by CCl4 induction and measured after 12 to 24 hrs", "format": "functional, organism-based", "conditions": "dose 10-30 mg/kg, time 15-27 hrs"}, "AML12 [27]": {"tested_on": "AML12", "experiment": "Protection against CCl4-induced ferroptosis in mouse AML12 cells assessed as reduction in MDA content at 200 to 1000 nM measured for 36 hrs", "format": "functional, cell-based", "conditions": "dose 200-1000 nM"}}, "note": "The source made the active and inactive calls. No cut-off for these calls is given here.", "data": [{"compound": "Cc1ncsc1-c1ccc(CNC(=O)[C@@H]2C[C@@H](O)CN2C(=O)[C@H](NC(=O)CCCC(=O)NCCOCCOCCOCCOc2ccc3c(c2)CCN(c2cccc(-c4nc5ccc(N6CCN(C)CC6)cc5[nH]4)c2)C3)C(C)(C)C)cc1", "values": [{"measurement": "Activity", "setting": "AML12 [1]", "value": "Active"}, {"measurement": "inhibition", "setting": "Mus musculus [2]", "value": "Active"}, {"measurement": "Activity", "setting": "AML12 [3]", "value": "Dose-Dependent Effect"}, {"measurement": "Activity", "setting": "AML12 [4]", "value": "inactive"}, {"measurement": "Activity", "setting": "AML12 [5]", "value": "Active"}, {"measurement": "Activity", "setting": "AML12 [6]", "value": "Active"}, {"measurement": "Activity", "setting": "AML12 [7]", "value": "Active"}, {"measurement": "Activity", "setting": "[8]", "value": "Active"}, {"measurement": "Activity", "setting": "AML12 [9]", "value": "Active"}, {"measurement": "Activity", "setting": "AML12 [10]", "value": "Dose-Dependent Effect"}, {"measurement": "Activity", "setting": "AML12 [11]", "value": "Active"}, {"measurement": "Activity", "setting": "AML12 [12]", "value": "Active"}, {"measurement": "Activity", "setting": "AML12 [13]", "value": "Active"}, {"measurement": "inhibition", "setting": "Mus musculus [14]", "value": "Active"}, {"measurement": "Activity", "setting": "AML12 [15]", "value": "Active"}, {"measurement": "EC50", "setting": "AML12 [16]", "value": 9, "unit": "nM"}, {"measurement": "Activity", "setting": "AML12 [17]", "value": "Active"}, {"measurement": "Activity", "setting": "AML12 [18]", "value": "Active"}, {"measurement": "Activity", "setting": "AML12 [19]", "value": "Active"}, {"measurement": "Activity", "setting": "AML12 [20]", "value": "Active"}, {"measurement": "inhibition", "setting": "Mus musculus [21]", "value": "Active"}, {"measurement": "EC50", "setting": "AML12 [22]", "value": 410, "unit": "nM"}, {"measurement": "Activity", "setting": "AML12 [23]", "value": "inactive"}, {"measurement": "inhibition", "setting": "Mus musculus [24]", "value": "Active"}, {"measurement": "inhibition", "setting": "Mus musculus [25]", "value": "Active"}, {"measurement": "inhibition", "setting": "Mus musculus [26]", "value": "Active"}, {"measurement": "Activity", "setting": "AML12 [27]", "value": "Active"}]}]}
